From patent US8796203B2, “Use of tight junction antagonists to treat inflammatory bowel disease” (Alba Therapeutics Corporation, priority 2006, dated 2014)

How the values were obtained:
Assay type in all cases: in vivo
129/Svev/IL-10KO mouse = experiment: Small intestinal permeability by lactulose mannitol test in IL-10 KO mouse; settings: high dose AT-1001 (1 mg/ml in drinking water, ad libidum), FIGS. 1-4
Experimental: (§1) The purpose of this study is to determine the ability of AT-1001, administered daily in drinking water to alter intestinal permeability (measured by absorption/excretion of lactulose and mannitol) and to inhibit the development of colitis in the 129/Svev/IL-10KO mouse.
AT-1001 neat chemical will be administered ad libidum every day starting at day 1 to Group 3 at 0.1 mg/ml and Group 4 at 1 mg/ml in sterile water via the drinking water supply. Dosing of AT-1001 will be continued when the animals are in the metabolic cages for 22 hours. Probiotic conditioned medium will be given every morning to Group 2. The solution is prepared by dissolving 0.01 g in 10 ml of MRS medium and incubating it at 37° C. for 24 h. After incubation, the tube will be centrifuged 10 minutes at 10,000 rpm. The supernatant will be filtered through a 0.22 micron filter and diluted 1:10 with MRS medium. Animals will receive 30 μl of this dilution every morning. The conditioned media must be prepared fresh every morning.
Each week, food and water will be removed 4 hours prior to gavage. […]
During each intestinal permeability trial, all subjects will be gavaged with suc/lac/man/sucralose solution and placed in metabolic cages immediately after to enable urine collection. […] All sugars will be quantified by ion exchange HPLC. […]

[1] = system: 129/Svev/IL-10KO mouse colon; experiment: Colonic inflammation (histology, mucosal cytokine secretion, MPO) in IL-10 KO mouse; settings: at 17 weeks; AT-1001 in drinking water
Source text: as §1
Immediately upon expiration, stomachs, small intestines, and colons will be collected and weighed. Each tissue will be scored for macroscopic lesions to assess intestinal damage by the Study Pathologist. ELISAs will be performed on each tissue to measure the levels of MPO, IL-8, TNFα, and IFNγ. A section of the tissues will be fixed in formalin for HE histology. The day after the final intestinal permeability measures on day 77, all surviving animals will be euthanized and intestinal tissues collected and processed.
(§2) FIG. 5-10 show the results of analysis of disease in the colon. Disease in the colon was evaluated at both 8 and 17 week time points. The former with Ussing chamber measurements and the latter with histology, mucosal cytokine secretion, MPO and sucralose permeability.

[2] = system: 129/Svev/IL-10KO mouse colon; experiment: Colonic permeability and electrical resistance, Ussing chamber measurements, IL-10 KO mouse; settings: at 8 weeks of age, AT-1001 in drinking water, versus untreated animals
Experimental: as §1, §2

## AT-1001
129/Svev/IL-10KO mouse
  increase in small intestinal permeability associated with development of disease: abrogated
[1]
  tissue markers of colonic inflammation (neutrophil infiltration/MPO, TNF and IFN secretion over 24 hours): reduced all tissue markers of colonic inflammation that were measured
[2]
  colonic electrical resistance: prevented the reduction in electrical resistance
  colonic permeability to mannitol: reduced colonic permeability to mannitol
